Results taken from patent publication EP0333356A2, “Hirudin peptides” (BIOGEN, INC., priority 1988, dated 1989).

Assays:
[1] = target: T1, bovine plasma thrombin (Bos taurus, UniProt P00735); assay: thrombin-catalyzed hydrolysis of tosyl-Gly-Pro-Arg-p-nitroanilide (Chromozym TH); assay type: biochemical; details: 4.2 x 10⁻⁶ M to 2.1 x 10⁻⁷ M peptide
T1 construct: bovine plasma thrombin, Calbiochem, Behring Diagnostics, La Jolla, CA; purchased Calbiochem, Behring Diagnostics, La Jolla, CA; host or cells: bovine plasma
Procedure: We analyzed the hirudin peptides of this invention for inhibition of thrombin-catalyzed hydrolysis of the tripeptidyl p-nitroanilide substrate tosyl-Gly-Pro-Arg-p-nitroanilide (Chromozym TH, Boehringer-Mannheim, Indianapolis, In.) spectrophotometrically at 420 nm on a Cary 219 double-beam spectrophotometer. Reactions were prepared by mixing 10 µl of thrombin solution (bovine plasma thrombin, Calbiochem, Behring Diagnostics, La Jolla, CA, 0.1 mg/ml in 0.1 M Tris-HCl, pH 7.4, 0.15 M NaCl) with 1.0 ml of 0.1 M Tris-HCl, pH 7.4, 0.15 M NaCl buffer. We then added 25 µl of substrate solution (4 mg/ml tosyl-Gly-Pro-Arg-p-nitroanilide in the above buffer) and varying amounts of hirudin₄₅₋₆₄ (as prepared in Example 4) from a 1.0 mg/ml stock solution to a final fixed volume of 1.035 ml, with final concentrations of thrombin and substrate of 2.8 x 10⁻⁸ M and 1.4 x 10⁻⁴ M, respectively.

[2] = target: T2, thrombin (Homo sapiens, UniProt P00734); assay: activated partial thromboplastin time (APTT) assay of pooled normal human plasma; assay type: biochemical; details: result in words
T2 construct: pooled, normal human plasma (George King Biomedical, Inc., Overland Park, Kansas); tissue George King Biomedical, Inc; host or cells: pooled normal human plasma
Procedure: Anticoagulant activity was determined by assaying APTT of pooled, normal human plasma (George King Biomedical, Inc., Overland Park, Kansas) (diluted 4:1, v/v, plasma:water) with a Coag-A-Mate 2001 instrument (General Diagnostics, Inc.. Morris Plains, New Jersey). Specifically, diluted plasma was mixed with stock solutions of hirudin peptides at concentrations ranging from 750 µg/ml in water, for non-sulfated hirudin peptides, to 35 µg/ml in water for sulfated hirudin peptides. The plasma and hirudin peptides were mixed to a final volume of 125 µl prior to each APTT determination.
We began the APTT assay by adding 92 µl of a crude thromboplastin suspension (General Diagnostics) and 100 µl of 0.3 M calcium chloride reagent to each well of a Coag-A-Mate dish (General Diagnostics) per APTT determination, to a final volume of assay mixture per well of 317 µl. The calcium chloride was prepared fresh prior to each assay. Activation times were constant at 180 sec.

Compound | inhibitory effect on thrombin-catalyzed hydrolysis of the artificial substrate [1] | increase in clotting time (APTT) [2] | increase in clotting time (APTT) ([2]; listed as hirudin₅₃₋₆₂)
CC[C@H](C)[C@H](NC(=O)[C@H](CCC(=O)O)NC(=O)[C@H](CCC(=O)O)NC(=O)[C@H](Cc1ccccc1)NC(=O)[C@H](CC(=O)O)NC(=O)CNC(=O)[C@H](CC(N)=O)NC(=O)[C@H](CC(N)=O)NC(=O)[C@H](Cc1c[nH]cn1)NC(=O)[C@H](CO)NC(=O)[C@H](CCC(=O)O)NC(=O)[C@@H]1CCCN1C(=O)[C@H](CC(N)=O)NC(=O)[C@@H]1CCCN1C(=O)[C@@H](N)[C@@H](C)O)C(=O)N1CCC[C@H]1C(=O)N[C@@H](CCC(=O)O)C(=O)N[C@@H](CCC(=O)O)C(=O)N[C@@H](Cc1ccc(O)cc1)C(=O)N[C@@H](CC(C)C)C(=O)O [hirudin₄₅₋₆₄] | no measurable inhibitory effect |  | 
H-NGDFEEIPEE-OH [des(Tyr-Leu) hirudin₅₃₋₆₂] |  | no comparative increase in clotting time | no reasonable inhibitory activity
